Assay results published in patent US10130693B2, “Peptides, combination of peptides and scaffolds for use in immunotherapeutic treatment of various cancers” (Immatics Biotechnologies GmbH, priority 2015, dated 2018).

tested on: CD8+ T cells; assay: In vitro immunogenicity: T-cell priming with aAPCs loaded with HLA-A*24 peptide/MHC and anti-CD28, multimer staining; type: cell-based, human; settings: HLA-A*24 peptides
Procedure: CD8+ T cells were primed using artificial APCs coated with anti-CD28 mAb and HLA-A*24 in complex with SEQ ID NO: 99 peptide (FIG. 5A, left panel), SEQ ID NO: 119 peptide (FIG. 5B, left panel), SEQ ID NO: 142 peptide (FIG. 5C, left panel) and SEQ ID NO: 174 peptide FIG. 5 (D, left panel), respectively. After three cycles of stimulation, the detection of peptide-reactive cells was performed by 2D multimer staining with A*24/SEQ ID NO: 99 (FIG. 5A), A*24/SEQ ID NO: 119 (FIG. 5B), A*24/SEQ ID NO: 142 (FIG. 5C) or A*24/SEQ ID NO: 174 (FIG. 5D). Right panels (FIGS. 5A,5B,5C and 5D) show control staining of cells stimulated with irrelevant A*24/peptide complexes. Viable singlet cells were gated for CD8+ lymphocytes. Boolean gates helped excluding false-positive events detected with multimers specific for different peptides. Frequencies of specific multimer+ cells among CD8+ lymphocytes are indicated.
(§1) Generation of pMHC/anti-CD28 coated beads, T-cell stimulations and readout was performed in a highly defined in vitro system using four different pMHC molecules per stimulation condition and 8 different pMHC molecules per readout condition.
(§2) The purified co-stimulatory mouse IgG2a anti human CD28 Ab 9.3 (Jung et al., 1987) was chemically biotinylated using Sulfo-N-hydroxysuccinimidobiotin as recommended by the manufacturer (Perbio, Bonn, Germany). Beads used were 5.6 μm diameter streptavidin coated polystyrene particles (Bangs Laboratories, Illinois, USA).
(§3) 800.000 beads/200 μl were coated in 96-well plates in the presence of 4×12.5 ng different biotin-pMHC, washed and 600 ng biotin anti-CD28 were added subsequently in a volume of 200 μl. Stimulations were initiated in 96-well plates by co-incubating 1×10^6 CD8+ T cells with 2×10^5 washed coated beads in 200 μl TCM supplemented with 5 ng/ml IL-12 (PromoCell) for 3 days at 37° C. Half of the medium was then exchanged by fresh TCM supplemented with 80 U/ml IL-2 and incubating was continued for 4 days at 37° C. This stimulation cycle was performed for a total of three times. For the pMHC multimer readout using 8 different pMHC molecules per condition, a two-dimensional combinatorial coding approach was used as previously described (Andersen et al., 2012) with minor modifications encompassing coupling to 5 different fluorochromes. Finally, multimeric analyses were performed by staining the cells with Live/dead near IR dye (Invitrogen, Karlsruhe, Germany), CD8-FITC antibody clone SK1 (BD, Heidelberg, Germany) and fluorescent pMHC multimers. For analysis, a BD LSRII SORP cytometer equipped with appropriate lasers and filters was used. Peptide specific cells were calculated as percentage of total CD8+ cells. Evaluation of multimeric analysis was done using the FlowJo software (Tree Star, Oregon, USA). In vitro priming of specific multimer+CD8+ lymphocytes was detected by comparing to negative control stimulations.

Row | Substance | in vitro immunogenicity, Wells positive [%]
1 | 354 (VYNEQIRDLL; listed as Homo sapiens) [compound 354] | + (<20% = +)
2 | 120 (GYIEHFSLW; listed as Homo sapiens) [compound 120] | ++ (20%-49% = ++)
3 | 171 (NYEDHFPLL; listed as Homo sapiens) [compound 171] | ++ (20%-49% = ++)
4 | 142 (VYVDDIYVI; listed as Homo sapiens) [compound 142] | ++++ (>=70% = ++++)
5 | 119 (VYRVYVTTF; listed as Homo sapiens) [compound 119] | +++ (50%-69% = +++)
6 | 172 (VFIFKGNEF; listed as Homo sapiens) [compound 172] | + (<20% = +)
7 | 170 (QYPFHVPLL; listed as Homo sapiens) [compound 170] | +++ (50%-69% = +++)
8 | 358 (YYSEVPVKL; listed as Homo sapiens) [compound 358] | ++++ (>=70% = ++++)
9 | 164 (HYVPATKVF; listed as Homo sapiens) [compound 164] | + (<20% = +)
10 | 160 (RYGDGGSSF; listed as Homo sapiens) [compound 160] | + (<20% = +)
11 | 345 (EYNSDLHQFF; listed as Homo sapiens) [compound 345] | ++ (20%-49% = ++)
12 | 175 (LYSPVPFTL; listed as Homo sapiens) [compound 175] | + (<20% = +)

tested on: CD8+ T cells; assay: In vitro immunogenicity: T-cell priming with aAPCs loaded with HLA-A*02 peptide/MHC and anti-CD28, multimer staining; type: cell-based, human; settings: HLA-A*02 peptides
Text: In order to obtain information regarding the immunogenicity of the TUMAPs of the present invention, the inventors performed investigations using an in vitro T-cell priming assay based on repeated stimulations of CD8+ T cells with artificial antigen presenting cells (aAPCs) loaded with peptide/MHC complexes and anti-CD28 antibody.
In order to perform in vitro stimulations by artificial antigen presenting cells loaded with peptide-MHC complex (pMHC) and anti-CD28 antibody, the inventors first isolated CD8+ T cells from fresh HLA-A*02 leukapheresis products via positive selection using CD8 microbeads (Miltenyi Biotec, Bergisch-Gladbach, Germany) of healthy donors obtained from the University clinics Mannheim, Germany, after informed consent.
PBMCs and isolated CD8+ lymphocytes were incubated in T-cell medium (TCM) until use consisting of RPMI-Glutamax (Invitrogen, Karlsruhe, Germany) supplemented with 10% heat inactivated human AB serum (PAN-Biotech, Aidenbach, Germany), 100 U/ml Penicillin/100 μg/ml Streptomycin (Cambrex, Cologne, Germany), 1 mM sodium pyruvate (CC Pro, Oberdorla, Germany), 20 μg/ml Gentamycin (Cambrex). 2.5 ng/ml IL-7 (PromoCell, Heidelberg, Germany) and 10 U/ml IL-2 (Novartis Pharma, Nürnberg, Germany) were also added to the TCM at this step.
as §1, §2
pMHC used for positive and negative control stimulations were A*0201/MLA-001 (peptide […] (SEQ ID NO. 418) from modified Melan-A/MART-1) and A*0201/DDX5-001 ([…] from DDX5, SEQ ID NO. 419), respectively.
as §3

Row | Substance | in vitro immunogenicity, Wells positive [%]
13 | 9 (FLGDYVENL; listed as Homo sapiens) [compound 9] | + (<20% = +)
14 | 331 (AIWKELISL; listed as Homo sapiens) [compound 331] | ++ (20%-49% = ++)
15 | 43 (LLWAGPVTA; listed as Homo sapiens) [compound 43] | ++++ (>=70% = ++++)
16 | 2 (ALYGKLLKL; listed as Homo sapiens) [compound 2] | ++++ (>=70% = ++++)
17 | 17 (ILHEHHIFL; listed as Homo sapiens) [compound 17] | + (<20% = +)
18 | 8 (KLGPFLLNA; listed as Homo sapiens) [compound 8] | +++ (50%-69% = +++)
19 | 322 (ALVSGGVAQA; listed as Homo sapiens) [compound 322] | + (<20% = +)
20 | 7 (AAAAKVPEV; listed as Homo sapiens) [compound 7] | + (<20% = +)

molecular target: HLA-A*02:01 (Homo sapiens, UniProt P04439, D140Y/D185E/D98H/E176V/E277Q/G131W/G231S/I119V/I121R/I166T/I218V/L300P/L318F/N151K/N90K/P208A/P217A/Q86G/Q94H/R138H/R169H/T345S); assay: MHC binding assay, UV-ligand exchange with beta2m ELISA (exchange yield), HLA-A*02; settings: binding to HLA-A*02 ranged by peptide exchange yield
In short: (§4)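 Peptide–MHC complexes formed by UV-ligand exchange: a UV-cleavable peptide is replaced by the test peptide, and only binders keep the complex stable. Exchange yield read by streptavidin-capture ELISA on reactions diluted 100-fold, detected with HRP anti-β2m (2 ug/ml, 1 h, 37° C) and TMB at 450 nm.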

Row | Substance | Peptide exchange (MHC class I binding score)
21 | 9 (FLGDYVENL; listed as Homo sapiens) [compound 9] | ++ (20%-49% = ++)
22 | 331 (AIWKELISL; listed as Homo sapiens) [compound 331] | +++ (50%-75% = +++)
23 | 43 (LLWAGPVTA; listed as Homo sapiens) [compound 43] | +++ (50%-75% = +++)
24 | 2 (ALYGKLLKL; listed as Homo sapiens) [compound 2] | +++ (50%-75% = +++)
25 | 17 (ILHEHHIFL; listed as Homo sapiens) [compound 17] | +++ (50%-75% = +++)
26 | 8 (KLGPFLLNA; listed as Homo sapiens) [compound 8] | +++ (50%-75% = +++)
27 | 322 (ALVSGGVAQA; listed as Homo sapiens) [compound 322] | +++ (50%-75% = +++)
28 | 7 (AAAAKVPEV; listed as Homo sapiens) [compound 7] | +++ (50%-75% = +++)

tested on: HLA-A*24; assay: MHC binding assay, UV-ligand exchange with beta2m ELISA (exchange yield), HLA-A*24; design: species or system human; settings: binding to HLA-A*24, UV-ligand exchange
In short: as §4

Row | Substance | Peptide exchange (MHC class I binding score, peptide exchange yield)
29 | 354 (VYNEQIRDLL; listed as Homo sapiens) [compound 354] | +++ (50%-75% = +++)
30 | 120 (GYIEHFSLW; listed as Homo sapiens) [compound 120] | ++++ (>=75% = ++++)
31 | 171 (NYEDHFPLL; listed as Homo sapiens) [compound 171] | +++ (50%-75% = +++)
32 | 142 (VYVDDIYVI; listed as Homo sapiens) [compound 142] | +++ (50%-75% = +++)
33 | 119 (VYRVYVTTF; listed as Homo sapiens) [compound 119] | +++ (50%-75% = +++)
34 | 172 (VFIFKGNEF; listed as Homo sapiens) [compound 172] | ++++ (>=75% = ++++)
35 | 170 (QYPFHVPLL; listed as Homo sapiens) [compound 170] | ++++ (>=75% = ++++)
36 | 358 (YYSEVPVKL; listed as Homo sapiens) [compound 358] | +++ (50%-75% = +++)
37 | 164 (HYVPATKVF; listed as Homo sapiens) [compound 164] | +++ (50%-75% = +++)
38 | 160 (RYGDGGSSF; listed as Homo sapiens) [compound 160] | +++ (50%-75% = +++)
39 | 345 (EYNSDLHQFF; listed as Homo sapiens) [compound 345] | +++ (50%-75% = +++)
40 | 175 (LYSPVPFTL; listed as Homo sapiens) [compound 175] | +++ (50%-75% = +++)
